Assay results as given in US12225904B2, “Phenylpyrazole compound and method for controlling plant disease” (SUMITOMO CHEMICAL COMPANY, LIMITED, priority 2019, dated 2025).

System: soybean powdery mildew (Microsphaera diffusa)
Experiment: Test Example 13: control test against soybean powdery mildew, foliar spray after inoculation
Type: in vivo
Conditions: 200 ppm foliar spray 2 days after inoculation; soybean cv Kurosengoku

Question: `CCS(=O)(=O)n1ccc(-c2ccc(Cl)c([N+](=O)[O-])c2)n1` [compound 36] was tested. Which “lesion area compared to the lesion area in an untreated soybean” value did it give?
Answer: Its value is ≤ 30%.
